Tests used:
Assay type in all cases: in vivo
[1] = tested on: ivy-leaved morning glory (Ipomoea hederacea); test: Test G Pre-Emergence Protocol; conditions: Ipomoea, pre-emergence, 312 h, evaluated after 13 days; for pest or weed control at 15.625 g/ha: 15.625 g ai/ha, read-out: Morning-glory, Ivy-leaved damage rating (100=total damage to plant; 0=no damage to plant); for pest or weed control at 62.5 g/ha: 62.5 g ai/ha, 100=total damage to plant, 0=no damage to plant, read-out: plant damage rating, Morningglory, Ivy-leaved; for pest or weed control at 250 g/ha: 250 g ai/ha, read-out: Morningglory, Ivy-leaved damage rating (100=total damage to plant; 0=no damage to plant)
Summary of the method: (§1)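 Herbicidal effect was rated 13 days post-application on a scale where 100 equals total damage. Spraying took place the day after sowing, using 15.625, 62.5 or 250 g/ha of compound in a 50:50 acetone/water solution with 0.5% Tween 20.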

[2] = tested on: giant foxtail (Setaria faberi); test: Test G Pre-Emergence Protocol; conditions: Setaria faberi, pre-emergence, 312 h, evaluated after 13 days; for pest or weed control at 15.625 g/ha: 15.625 g ai/ha; for pest or weed control at 15.625 g/ha / pest or weed control at 250 g/ha: read-out: Foxtail, Giant damage rating (100=total damage to plant; 0=no damage to plant); for pest or weed control at 62.5 g/ha: 62.5 g ai/ha, 100=total damage to plant, 0=no damage to plant, read-out: plant damage rating, Foxtail, Giant; for pest or weed control at 250 g/ha: 250 g ai/ha
Summary of the method: as §1

[3] = tested on: corn (Zea mays); test: Test G Pre-Emergence Protocol; conditions: Zea mays, pre-emergence, 312 h, evaluated after 13 days; for plant injury at 15.625 g/ha: 15.625 g ai/ha; for plant injury at 15.625 g/ha / plant injury at 250 g/ha: read-out: Corn damage rating (100=total damage to plant; 0=no damage to plant); for plant injury at 62.5 g/ha: 62.5 g ai/ha, 100=total damage to plant, 0=no damage to plant, read-out: plant damage rating, Corn; for plant injury at 250 g/ha: 250 g ai/ha
Summary of the method: as §1

[4] = tested on: velvetleaf (Abutilon theophrasti); test: Test G Pre-Emergence Protocol; conditions: Abutilon theophrasti, pre-emergence, 312 h, evaluated after 13 days; for pest or weed control at 15.625 g/ha: 15.625 g ai/ha; for pest or weed control at 15.625 g/ha / pest or weed control at 250 g/ha: read-out: Velvetleaf damage rating (100=total damage to plant; 0=no damage to plant); for pest or weed control at 62.5 g/ha: 62.5 g ai/ha, 100=total damage to plant, 0=no damage to plant, read-out: plant damage rating, Velvetleaf; for pest or weed control at 250 g/ha: 250 g ai/ha
Summary of the method: as §1

[5] = tested on: barnyardgrass (Echinochloa crus-galli); test: Test G Pre-Emergence Protocol; conditions: Echinochloa crus-galli, pre-emergence, 312 h, evaluated after 13 days; for pest or weed control at 15.625 g/ha: 15.625 g ai/ha, read-out: Barnyard grass damage rating (100=total damage to plant; 0=no damage to plant); for pest or weed control at 62.5 g/ha: 62.5 g ai/ha, 100=total damage to plant, 0=no damage to plant, read-out: plant damage rating, Barnyardgrass; for pest or weed control at 250 g/ha: 250 g ai/ha, read-out: Barnyardgrass damage rating (100=total damage to plant; 0=no damage to plant)
Summary of the method: as §1

[6] = tested on: redroot pigweed (Amaranthus retroflexus); test: Test G Pre-Emergence Protocol; conditions: Amaranthus retroflexus, pre-emergence, 312 h, evaluated after 13 days; for pest or weed control at 15.625 g/ha: 15.625 g ai/ha; for pest or weed control at 15.625 g/ha / pest or weed control at 250 g/ha: read-out: Pigweed, Redroot damage rating (100=total damage to plant; 0=no damage to plant); for pest or weed control at 62.5 g/ha: 62.5 g ai/ha, 100=total damage to plant, 0=no damage to plant, read-out: plant damage rating, Pigweed, Redroot; for pest or weed control at 250 g/ha: 250 g ai/ha
Summary of the method: as §1

[7] = tested on: ivy-leaved morning glory (Ipomoea hederacea); test: Test G Post-Emergence Protocol; conditions: Ipomoea, post-emergence, 312 h; for pest or weed control at 15.625 g/ha: 15.625 g ai/ha, evaluated after 13 days (100=total damage to plant; 0=no damage to plant), read-out: Morningglory, Ivy-leaved damage rating; for pest or weed control at 62.5 g/ha: 62.5 g ai/ha, read-out: Morningglory, Ivy-leaved damage rating (100=total damage to plant; 0=no damage to plant); for pest or weed control at 62.5 g/ha / pest or weed control at 250 g/ha: evaluated after 13 days; for pest or weed control at 250 g/ha: 250 g ai/ha, read-out: damage to plant, Morningglory, Ivy-leaved (100=total damage to plant; 0=no damage to plant)
Summary of the method: (§2)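 Scores run 0 (no damage) to 100 (total damage) and were taken 13 days after spraying. Plants had been raised in pots for 8 days under glasshouse control (24/16 °C, 14 h photoperiod, 65% humidity) and then treated at 15.625, 62.5 or 250 g/ha.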

[8] = tested on: giant foxtail (Setaria faberi); test: Test G Post-Emergence Protocol; conditions: Setaria faberi, post-emergence, 312 h; for pest or weed control at 15.625 g/ha: 15.625 g ai/ha, evaluated after 13 days (100=total damage to plant; 0=no damage to plant), read-out: Foxtail, Giant damage rating; for pest or weed control at 62.5 g/ha: 62.5 g ai/ha, read-out: Foxtail, Giant damage rating (100=total damage to plant; 0=no damage to plant); for pest or weed control at 62.5 g/ha / pest or weed control at 250 g/ha: evaluated after 13 days; for pest or weed control at 250 g/ha: 250 g ai/ha, read-out: damage to plant, Foxtail, Giant (100=total damage to plant; 0=no damage to plant)
Summary of the method: as §2

[9] = tested on: corn (Zea mays); test: Test G Post-Emergence Protocol; conditions: Zea mays, post-emergence, 312 h; for plant injury at 15.625 g/ha: 15.625 g ai/ha, evaluated after 13 days (100=total damage to plant; 0=no damage to plant), read-out: Corn damage rating; for plant injury at 62.5 g/ha: 62.5 g ai/ha, read-out: Corn damage rating (100=total damage to plant; 0=no damage to plant); for plant injury at 62.5 g/ha / plant injury at 250 g/ha: evaluated after 13 days; for plant injury at 250 g/ha: 250 g ai/ha, read-out: damage to plant, Corn (100=total damage to plant; 0=no damage to plant)
Summary of the method: as §2

[10] = tested on: velvetleaf (Abutilon theophrasti); test: Test G Post-Emergence Protocol; conditions: Abutilon theophrasti, post-emergence, 312 h; for pest or weed control at 15.625 g/ha: 15.625 g ai/ha, evaluated after 13 days (100=total damage to plant; 0=no damage to plant), read-out: Velvetleaf damage rating; for pest or weed control at 62.5 g/ha: 62.5 g ai/ha, read-out: Velvetleaf damage rating (100=total damage to plant; 0=no damage to plant); for pest or weed control at 62.5 g/ha / pest or weed control at 250 g/ha: evaluated after 13 days; for pest or weed control at 250 g/ha: 250 g ai/ha, read-out: damage to plant, Velvetleaf (100=total damage to plant; 0=no damage to plant)
Summary of the method: as §2

[11] = tested on: barnyardgrass (Echinochloa crus-galli); test: Test G Post-Emergence Protocol; conditions: Echinochloa crus-galli, post-emergence, 312 h; for pest or weed control at 15.625 g/ha: 15.625 g ai/ha, evaluated after 13 days (100=total damage to plant; 0=no damage to plant), read-out: Barnyardgrass damage rating; for pest or weed control at 62.5 g/ha: 62.5 g ai/ha, read-out: Barnyardgrass damage rating (100=total damage to plant; 0=no damage to plant); for pest or weed control at 62.5 g/ha / pest or weed control at 250 g/ha: evaluated after 13 days; for pest or weed control at 250 g/ha: 250 g ai/ha, read-out: damage to plant, Barnyardgrass (100=total damage to plant; 0=no damage to plant)
Summary of the method: as §2

[12] = tested on: redroot pigweed (Amaranthus retroflexus); test: Test G Post-Emergence Protocol; conditions: Amaranthus retroflexus, post-emergence, 312 h; for pest or weed control at 15.625 g/ha: 15.625 g ai/ha, evaluated after 13 days (100=total damage to plant; 0=no damage to plant), read-out: Pigweed, Redroot damage rating; for pest or weed control at 62.5 g/ha: 62.5 g ai/ha, read-out: Pigweed, Redroot damage rating (100=total damage to plant; 0=no damage to plant); for pest or weed control at 62.5 g/ha / pest or weed control at 250 g/ha: evaluated after 13 days; for pest or weed control at 250 g/ha: 250 g ai/ha, read-out: damage to plant, Pigweed, Redroot (100=total damage to plant; 0=no damage to plant)
Summary of the method: as §2

Structure (SMILES) | pest or weed control at 15.625 g/ha [1] | pest or weed control at 62.5 g/ha [1] | pest or weed control at 250 g/ha [1] | pest or weed control at 15.625 g/ha [2] | pest or weed control at 62.5 g/ha [2] | pest or weed control at 250 g/ha [2] | plant injury at 15.625 g/ha [3] | plant injury at 62.5 g/ha [3] | plant injury at 250 g/ha [3] | pest or weed control at 15.625 g/ha [4] | pest or weed control at 62.5 g/ha [4] | pest or weed control at 250 g/ha [4] | pest or weed control at 15.625 g/ha [5] | pest or weed control at 62.5 g/ha [5] | pest or weed control at 250 g/ha [5] | pest or weed control at 15.625 g/ha [6] | pest or weed control at 62.5 g/ha [6] | pest or weed control at 250 g/ha [6] | pest or weed control at 15.625 g/ha [7] | pest or weed control at 62.5 g/ha [7] | other results
Cc1ncc(NC(=O)[C@@H]2C(=O)N(C)C[C@H]2c2ccc(C(F)(F)F)cc2)s1 (racemic) [Compound 1595] | 0% | 0% | 0% | 0% | 0% | 0% | 0% | 0% | 0% | 0% | 0% | 0% | 0% | 0% | 0% | 0% | 0% | 0% | 0% | 60% | pest or weed control at 250 g/ha [7]: 20%; pest or weed control at 15.625 g/ha [8]: 0%; pest or weed control at 62.5 g/ha [8]: 0%; pest or weed control at 250 g/ha [8]: 10%; plant injury at 15.625 g/ha [9]: 0%; plant injury at 62.5 g/ha [9]: 60%; plant injury at 250 g/ha [9]: 0%; pest or weed control at 15.625 g/ha [10]: 0%; pest or weed control at 62.5 g/ha [10]: 10%; pest or weed control at 250 g/ha [10]: 10%; pest or weed control at 15.625 g/ha [11]: 10%; pest or weed control at 62.5 g/ha [11]: 10%; pest or weed control at 250 g/ha [11]: 10%; pest or weed control at 15.625 g/ha [12]: 0%; pest or weed control at 62.5 g/ha [12]: 10%; pest or weed control at 250 g/ha [12]: 20%
COc1cccc(NC(=O)[C@@H]2C(=O)N(C)C[C@H]2c2ccc(C(F)(F)F)cc2)n1 (racemic) [Compound 1601] | 0% | 0% | 0% | 0% | 20% | 80% | 0% | 0% | 0% | 0% | 0% | 0% | 0% | 10% | 70% | 0% | 0% | 50% | 0% | 10% | pest or weed control at 250 g/ha [7]: 30%; pest or weed control at 15.625 g/ha [8]: 0%; pest or weed control at 62.5 g/ha [8]: 80%; pest or weed control at 250 g/ha [8]: 70%; plant injury at 15.625 g/ha [9]: 0%; plant injury at 62.5 g/ha [9]: 10%; plant injury at 250 g/ha [9]: 30%; pest or weed control at 15.625 g/ha [10]: 0%; pest or weed control at 62.5 g/ha [10]: 20%; pest or weed control at 250 g/ha [10]: 50%; pest or weed control at 15.625 g/ha [11]: 0%; pest or weed control at 62.5 g/ha [11]: 40%; pest or weed control at 250 g/ha [11]: 70%; pest or weed control at 15.625 g/ha [12]: 0%; pest or weed control at 62.5 g/ha [12]: 10%; pest or weed control at 250 g/ha [12]: 30%
CN1C[C@@H](c2ccc(C(F)(F)F)cc2)[C@H](C(=O)Nc2cccc3cn[nH]c23)C1=O (racemic) [Compound 1605] | 0% | 0% | 0% | 0% | 0% | 0% | 0% | 0% | 0% | 0% | 0% | 0% | 0% | 0% | 0% | 0% | 0% | 0% | 0% | 0% | pest or weed control at 250 g/ha [7]: 0%; pest or weed control at 15.625 g/ha [8]: 0%; pest or weed control at 62.5 g/ha [8]: 0%; pest or weed control at 250 g/ha [8]: 10%; plant injury at 15.625 g/ha [9]: 0%; plant injury at 62.5 g/ha [9]: 0%; plant injury at 250 g/ha [9]: 10%; pest or weed control at 15.625 g/ha [10]: 0%; pest or weed control at 62.5 g/ha [10]: 0%; pest or weed control at 250 g/ha [10]: 10%; pest or weed control at 15.625 g/ha [11]: 0%; pest or weed control at 62.5 g/ha [11]: 0%; pest or weed control at 250 g/ha [11]: 30%; pest or weed control at 15.625 g/ha [12]: 0%; pest or weed control at 62.5 g/ha [12]: 20%; pest or weed control at 250 g/ha [12]: 30%
